The numbers were not newly measured in PMC8018653, “Gender-based differences in brain and plasma pharmacokinetics of letrozole in sprague-dawley rats: Application of physiologically-based pharmacokinetic modeling to gain quantitative insights” (PLoS ONE, 2021), which cites them from elsewhere.

The data set has as its system P-glycoprotein (P-gp). As to conditions: cited from earlier work.

With `CC(C)(C#N)c1cc(Cn2cncn2)cc(C(C)(C)C#N)c1` [anastrozole], the “substrate for the efflux transporter P-glycoprotein (P-gp)” value was “substrate”.
